From patent US6492364B1, “Triazolo and derivatives as chemokine inhibitors” (Toray Industries, Inc., priority 1998, dated 2002) come the findings set out here.

Structures can show the parent of a compound that is named as a salt.

One data set addresses T1, CCR1 (Homo sapiens, UniProt P32246).
T1 construct: endogenous in cells; host or cells: THP-1 (human monocytic cell line)
T1 sequence (P32246 1-355): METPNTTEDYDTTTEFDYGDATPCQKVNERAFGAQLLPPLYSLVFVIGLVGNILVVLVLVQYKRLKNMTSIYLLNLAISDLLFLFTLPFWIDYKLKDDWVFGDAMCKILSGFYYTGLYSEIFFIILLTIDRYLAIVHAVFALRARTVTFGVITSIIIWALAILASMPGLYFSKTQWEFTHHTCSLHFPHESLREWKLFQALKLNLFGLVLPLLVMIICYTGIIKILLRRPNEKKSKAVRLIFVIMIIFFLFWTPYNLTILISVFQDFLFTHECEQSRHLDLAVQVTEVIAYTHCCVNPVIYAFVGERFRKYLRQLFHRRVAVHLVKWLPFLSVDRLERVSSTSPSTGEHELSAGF
The experiment in a line: Inhibition of RANTES-induced intracellular calcium increase in THP-1 cells (Fura-2). Format: cell-based. Conditions: human monocytic cell line THP-1, stimulated with RANTES (40 ng/ml), intracellular calcium level. The protocol:
(§1) The CCR receptor-inhibiting activities of the compounds represented by Formula I will now be described. Using human eosinophil or human monocytic cell line (THP-1), the CCR receptor-inhibiting activities were studied.
(§2) Human peripheral blood eosinophils or THP- l cells were suspended in RPMI-1640 culture medium containing 1% fetal calf serum (FCS) and cultured at 37° C. for 30 minutes in the presence of 5 μM of Fura-2/AM (DOJINDO LABORATORIES). The cells were washed twice with assay buffer (140 mM NaCl, 10 mM KCl, 1.8mM CaCl2, 1 mM MgCl2, 1 mM Na2HPO4, 25mM HEPES, 5 mM glucose, 1% BSA; pH7.4) at 4° C. to remove Fura-2/AM which was not taken into the cells. The cells were suspended in the assay buffer to a final cell density of 1×10^6 cells/ml and the cell suspension was stored in the dark until assay. The calcium levels in the cells were measured by using CAF100 commercially available from Nippon Koden Co. That is, 490 μl of the suspension of the cells loaded with Fura-2 was placed in a cuvette and the cuvette was set in CAF100. After the fluorescence intensities at 340 nm and 380 nm of excitation, as well as the ratio thereof, were stabilized, 10 μl of 250 μM solution of each test compound was injected. The change in the calcium level in the cells within one minute from the stimulation was measured in terms of the ratio (F340/F380) of the intensity of the excitation light at 340 nm to that of the light at 380 nm, and the intracellular calcium level induced by the stimulation was defined as the peak of the ratio. One minute after exposure of the cells to each test compound, the cells were stimulated with eotaxin (5 ng/ml), RANTES (40 ng/ml) or MCP-1 (10 ng/ml). It is thought that the responses by THP-1 cells to RANTES and MCP-1 are mediated through CCR1 and CCR2, respectively; The response of eosinophils to eotaxin is thought to be mediated through CCR3. The increase of the intracellular calcium level was compared to that of the corresponding case wherein the cells were not treated with the test compound.

For another data set, the target named is T2, CCR2 (Homo sapiens, UniProt P41597).
T2 construct: endogenous in cells; host or cells: THP-1 (human monocytic cell line)
T2 sequence (P41597 1-360 isoform P41597-2): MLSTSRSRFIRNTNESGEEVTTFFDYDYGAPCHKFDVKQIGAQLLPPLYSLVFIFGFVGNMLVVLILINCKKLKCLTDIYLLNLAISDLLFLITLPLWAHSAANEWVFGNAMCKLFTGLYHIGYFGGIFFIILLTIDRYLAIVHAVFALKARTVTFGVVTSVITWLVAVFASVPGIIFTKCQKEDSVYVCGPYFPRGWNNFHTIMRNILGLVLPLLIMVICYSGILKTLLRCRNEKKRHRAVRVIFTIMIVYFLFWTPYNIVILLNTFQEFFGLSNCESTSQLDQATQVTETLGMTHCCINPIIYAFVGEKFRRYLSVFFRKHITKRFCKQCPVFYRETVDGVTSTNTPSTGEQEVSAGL
The experiment in a line: Inhibition of MCP-1-induced intracellular calcium increase in THP-1 cells (Fura-2). Format: cell-based. Conditions: human monocytic cell line THP-1, stimulated with MCP-1 (10 ng/ml), intracellular calcium level. As for the experimental part:
as §1, §2

Another data set deals with T3, CCR3 (Homo sapiens, UniProt P51677).
T3 construct: endogenous in cells; host or cells: human peripheral blood eosinophils (primary cells)
T3 sequence (P51677 1-355): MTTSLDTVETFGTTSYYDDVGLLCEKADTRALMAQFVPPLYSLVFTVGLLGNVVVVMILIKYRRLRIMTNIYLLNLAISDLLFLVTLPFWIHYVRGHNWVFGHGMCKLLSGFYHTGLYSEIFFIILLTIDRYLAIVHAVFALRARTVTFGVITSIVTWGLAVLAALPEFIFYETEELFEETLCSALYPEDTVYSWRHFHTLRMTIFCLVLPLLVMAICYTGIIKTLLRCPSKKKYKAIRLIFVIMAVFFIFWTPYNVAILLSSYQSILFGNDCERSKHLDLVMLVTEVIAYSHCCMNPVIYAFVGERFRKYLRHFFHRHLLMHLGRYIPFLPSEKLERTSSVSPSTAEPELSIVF
The experiment in a line: Inhibition of eotaxin-induced intracellular calcium increase in human eosinophils (Fura-2). Format: cell-based. The following applies: human peripheral blood eosinophils, stimulated with eotaxin (5 ng/ml), intracellular calcium level. As for the experimental part: as §1, §2

Turning to `Cc1nnc2n(CCCN3CCC(C(c4ccccc4)c4ccccc4)CC3)c(=O)c3ccccc3n12` (as salt: hydrochloride) [Compound 14], the melting point lay within 172.8 to 190.5 °C.

On to `Cc1nnc2n(CCCN3CCN(Cc4cccc(Oc5ccccc5)c4)CC3)c(=O)c3ccccc3n12` (as salt: hydrochloride) [Compound 17, 2,4,5,7-Tetraaza-3-methyl-7-(3-(4-((3-phenoxyphenyl)methyl)piperazinyl)propyl)tricyclo[7.4.0.0<2,6>]trideca-1(13),3,5,9(10),11-pentaene-8-one], for which the melting point lay within 225 to 230.5 °C. The same measure, in the same setting: next, `Cc1nnc2n(CCCN3CCN(Cc4ccc(Oc5ccccc5)cc4)CC3)c(=O)c3ccccc3n12` (as salt: hydrochloride) [Compound 20, 2,4,5,7-Tetraaza-3-methyl-7-(3-(4-((4-phenoxyphenyl)methyl)piperazinyl)propyl)tricyclo[7.4.0.0<2,6>]trideca-1(13),3,5,9(10),11-pentaene-8-one]: 229 to 237 °C; `Cc1nnc2n(CCCCN3CCC(C(c4ccccc4)c4ccccc4)CC3)c(=O)c3ccccc3n12` (as salt: hydrochloride) [Compound 56]: 166.5 to 180 °C. In the case of `Cc1nnc2n(CCCN3CCCC(c4c[nH]c5ccccc45)C3)c(=O)c3ccccc3n12` (stereo not drawn) [Compound 5, 2,4,5,7-Tetraaza-7-(3-(3-indole-3-ylpiperidyl)propyl)-3-methyltricyclo[7.4.0.0<2,6>]trideca-1(13),3,5,9(10),11-pentaene-8-one], the melting point is 207 to 212 °C (dec.). Also, on CCR1, the IC50 was determined as 12.9 µM. The IC50 on CCR2 came to 48.1 µM. Turning to `Cc1nnc2n(CCCN3CCC(c4c[nH]c5ccccc45)CC3)c(=O)c3ccccc3n12` [Compound 6, 2,4,5,7-Tetraaza-7-(3-(4-indole-3-ylpiperidyl)propyl)-3-methyltricyclo[7.4.0.0<2,6>]trideca-1(13),3,5,9(10),11-pentaene-8-one], the melting point was 207 to 209 °C (dec.). Same read-out and setting: next, `Cc1nnc2n(CCCN3CCC(=C(c4ccccc4)c4ccccc4)CC3)c(=O)c3ccccc3n12` [Compound 7]: 157 to 159 °C.

`Cc1nnc2n(CCCN3CCN(Cc4ccccc4-c4ccccc4)CC3)c(=O)c3ccccc3n12` [Compound 11, 2,4,5,7-Tetraaza-3-methyl-7-(3-(4-((2-phenylphenyl)methyl)piperazinyl)propyl)tricyclo[7.4.0.0<2,6>]trideca-1(13),3,5,9(10),11-pentaene-8-one]: the IC50 at CCR1 is 9.1 µM; at CCR2, more than 160 µM; at CCR3, 3.6 µM. Consider `Cc1nnc2n(CCCN3CCN(C4CCCCC4)CC3)c(=O)c3ccccc3n12` [Compound 12], for which the melting point is 118 to 120 °C. In turn, `Cc1nnc2n(CCCN3CCN(C(c4ccccc4)c4ccccc4)CC3)c(=O)c3ccccc3n12` [Compound 26] gave a melting point of 168 to 173 °C. Besides, the IC50 at CCR1 stood at 4.1 µM. For the same compound, the IC50 on CCR2 is more than 160 µM. Further, at CCR3, the IC50 amounted to 0.3 µM. `CCc1nnc2n(CCCN3CCN(C(c4ccccc4)c4ccccc4)CC3)c(=O)c3ccccc3n12` [Compound 27] showed a melting point of 199 to 201 °C. `CCCc1nnc2n(CCCN3CCN(C(c4ccccc4)c4ccccc4)CC3)c(=O)c3ccccc3n12` [Compound 28] came in with a melting point of 150 to 152 °C. Also, on CCR1, the IC50 is 9.3 µM. For the same compound, the half-maximal inhibitory concentration (IC50) at CCR2 is more than 160 µM. Also, the IC50 at CCR3 amounted to 1.4 µM. Compound `COc1ccc2c(c1)c(=O)n(CCCN1CCN(C(c3ccccc3)c3ccccc3)CC1)c1nnc(C)n21` [Compound 33] registered a melting point of 194 to 196 °C.

In turn, `COc1cc2c(=O)n(CCCN3CCN(C(c4ccccc4)c4ccccc4)CC3)c3nnc(C)n3c2cc1OC` [Compound 35] came in with a melting point of 184 to 186 °C. `Cc1nnc2n(CCCN3CCN(C(c4ccccc4)c4ccccc4)CC3)c(=O)c3cc(Cl)ccc3n12` [Compound 38] gave a melting point of 116 to 118 °C. Besides, the concentration for half-maximal inhibition (IC50) on CCR1 was 16 µM. The IC50 at CCR2 is more than 160 µM. In addition, the IC50 at CCR3 is 0.5 µM. In turn, `Cc1nnc2n(CCCN3CCN(C(c4ccccc4)c4ccccc4)CC3)c(=O)c3cc(O)ccc3n12` [Compound 40] returned a melting point of 225 to 228 °C.

Turning to `Cc1nnc2n(CCCN3CCN(C(c4ccccc4)c4ccccc4)CC3)c(=O)c3ccc(C(F)(F)F)cc3n12` [Compound 45], the melting point is 154 to 159.5 °C. Same read-out and setting: next, `Cc1nnc2n(CCCN3CCN(C(c4ccccc4)c4ccccc4)CC3)c(=O)c3cc(N(C)C)ccc3n12` [Compound 47]: 189 to 191 °C; `Cc1nnc2n(CCN3CCN(C(c4ccccc4)c4ccccc4)CC3)c(=O)c3ccccc3n12` [Compound 50]: 217 to 219 °C. Still for that read-out and setting: next, `Cc1nnc2n(CCCCN3CCN(C(c4ccccc4)c4ccccc4)CC3)c(=O)c3ccccc3n12` [Compound 55]: 157 to 159 °C.

The compound `Cc1nnc2c(CCCN3CCC(C(c4ccccc4)c4ccccc4)CC3)nc3ccccc3n12` [Compound 74] returned a melting point of 88 to 90 °C. The same measure, in the same setting: the figure for `Cc1nnc2n(-c3cccc(N4CCC(C(c5ccccc5)c5ccccc5)CC4)c3)c(=O)c3ccccc3n12` [Compound 85] is 277 to 279 °C; for `Cc1nnc2n(CCCN3CCN(Cc4ccc(Cl)c(Cl)c4)CC3)c(=O)c3ccccc3n12` [Compound 93, 2,4,5,7-Tetraaza-7-(3-(4-(3,4-dichlorobenzyl)piperazine-1-yl)propyl)-3-methyltricyclo[7.4.0.0<2,6>]trideca-1(13),3,5,9(10),11-pentaene-8-one] it is 77 to 79 °C.
